In US20040235761A1, “Novel virus proliferaton inhibition/virucidal method and novel pyradine nucleotide/pyradine nucleoside analogue” (priority 2001, published 2004):

Tests used:
MDCK cells [1] = test: Detection of phosphate compound in cell (Test Example 1); format: in vitro ADME; conditions: 35° C., 20 hours, HPLC with radioactivity detector
Procedure: 5 ml of an E′-MEM culture medium (containing 1% bovine serum albumin and 3% vitamin solution) containing a compound, 6-fluoro-3-hydroxy-2-[2-^14C]pyrazinecarboxamide, which ha-d been ^14C-labeled at position 2 of the pyrazine ring, was added to MDCK cells that had been monolayer-cultured on a 55 cm^2 culture plate. After completion of culture under conditions of 35° C. and 5% CO2 for 20 hours, 6-fluoro-3-hydroxy-2-[2-^14C]pyrazinecarboxamide and a converted compound were extracted from cell fractions, using a 66.6% acetonitrile solution. The extract was lyophilized and concentrated, and then analysis was carried out under the HPLC analysis conditions indicated below.

[2] = tested on: influenza virus A/PR/8/34; test: Anti-influenza effect (plaque inhibition in MDCK cells); format: cell-based; conditions: PR/8, MDCK, 72 h, read-out: Inhibition rate (plaque inhibition rate)
[3] = tested on: bovine diarrhea virus (BVDV) NADL; test: Anti-BVDV effect (plaque inhibition in MDBK cells); format: cell-based; conditions: Bovine viral diarrhea virus isolates and strains, 72 h, 100 μg/mL test compound, 70 PFU/well, 3 days, read-out: Inhibition rate (plaque inhibition rate)
Procedure: MDBK cells that had fully grown in a 6-well culture plate were infected with bovine diarrhea virus (BVDV) NADL at 70 PFU/well. After 60 minutes, the infection solution was removed, and a test culture solution (E′-MEM) containing 5% horse serum and 1% agar (SeaPlaque Agar) that contained a 100 μg/mL test compound was added thereto. The mixture was fully solidified and then cultured for 3 days under conditions of 37° C., a humidity of 100% and 5% CO2. After completion of the culture, the test plate was fixed with a 3% formaldehyde solution, and the agar medium was removed with running water, followed by staining with a 1% crystal violet solution, so as to count the number of plaques. The plaque inhibition rate was expressed by the percentage obtained by comparing with a control to which no test compounds were added.

MDCK cells [4] = test: Detection of deprotected compound in cell (Test Example 2); format: in vitro ADME; conditions: 37° C., 1 hour, HPLC
Procedure: The compound of Example 2 was added to MDCK cells suspended in a Hank's balanced salt solution, and the mixture was incubated at 37° C. for 1 hour. Thereafter, the obtained product was layered on silicon oil (KF-99), followed by centrifugation at 4° C. Cell fractions from the precipitate were suspended and frozen-thawed in a mobile phase indicated below, and the obtained solution was analyzed under the HPLC analysis conditions indicated below.

[5] = Stability during the process of pharmaceutical preparation; format: physicochemical; conditions: compared with anhydrides
[6] = mouse, in vivo, 300 mg/kg
Procedure: Compound A was administered into the caudal vein of a mouse at a dose of 300 mg/kg. 30 minutes after the administration, 1.6 g of the liver was excised, and it was then ground under ice cooling, while adding thereto 22.5 mL of 70% methanol that had been cooled to −20° C., so that compound A and a phosphate(s) form were extracted. 10 mL of the supernatant of the extract centrifuged at 4° C. for 10 minutes was purified under the condition indicated below, using a solid extraction cartridge (Varian BOND ELUT SAX HF 2 g/12 mL; eluted with 0.01 M to 1.0 M KCl) pretreated with 12 mL of methanol and 12 mL each of 1.0 M and 0.005 M KCl.
The phosphate form contained in 5 mL of No. 3 0.05 M KCl eluate and a synthetic monophosphate compound (a compound obtained in Reference Example 30) were identical in terms of HPLC retention time and UV spectrum in HPLC analysis (HPLC-1) described in HPLC conditions. In addition, the phosphate form contained in 5 mL of No. 1 0.5 M KCl eluate and a synthetic diphosphate compound (a compound obtained in Reference Example 31) were identical in terms of HPLC retention time in HPLC analysis (HPLC-2) described in HPLC conditions. […]

MDBK cells = test: Detection of triphosphate compound in cell by addition of compound A; format: in vitro ADME; conditions: 37° C., 24 hours
Procedure: 10 ml of an E′-MEM culture medium (containing 0.5% fetal bovine serum) containing compound A was added to MDBK cells that had been monolayer-cultured on a 55 cm^2 culture plate. After completion of culture under conditions of 37° C. and 5% CO2 for 24 hours, the culture was removed using a cell scraper, and the culture medium was removed by centrifugation. Thereafter, 5% trichloroacetic acid was added to the obtained cell fractions, so that a converted compound was extracted. An equal amount of 20% trioctylamine-containing pentane was added to the extract, and the obtained water layer was then concentrated using a centrifugal concentrator. In the above concentrate, a component whose HPLC retention time matches that of a synthetic compound of triphosphates (a compound obtained in Reference Example 22) was detected.

NC(=O)[14c]1nc(F)cnc1O [6-fluoro-3-hydroxy-2-[2-^14C] pyrazinecarboxamide]
monophosphate (Reference Example 15) and triphosphate (Reference Example 16) in cell fractions (MDCK cells [1]): detected

CC(C)(C)C(=O)SCCOP(=O)(OCCSC(=O)C(C)(C)C)OC[C@H]1O[C@@H](n2ccnc(C(N)=O)c2=O)[C@H](O)[C@@H]1O [Example 2, 2,2-dimethyl-thiopropionic acid S-(2-[[(2R,3S,4R,5R)-5-(3-carbamoyl-2-oxo-2H-pyrazine-1-yl)-3,4-dihydroxy-tetrahydro-furan-2-ylmethoxy]-[2-(2,2-dimethyl-propionylsulfanyl)-ethoxy]-phosphoryloxy]-ethyl) ester]
inhibition at 100 µg/mL [2]: 100%
inhibition at 100 µg/mL [3]: 100%
monophosphate as deprotected compound in cell fractions (MDCK cells [4]): detected

NC(=O)c1nccn([C@@H]2O[C@H](CO)[C@@H](O)[C@H]2O)c1=O.O [Example 29 (2), 4-[(2R,3R,4S,5R)-3,4-dihydroxy-5-(hydroxymethyl)tetrahydro-2-furanyl]-3-oxo-3,4-dihydro-2-pyrazinecarboxamide monohydrate]
stability during the process of pharmaceutical preparation [5]: excellent stability

NC(=O)c1nccn([C@@H]2O[C@H](CO)[C@@H](O)[C@H]2O)c1=O [Example 29, 4-[(2R,3R,4S,5R)-3,4-dihydroxy-5-(hydroxymethyl)tetrahydro-2-furanyl]-3-oxo-3,4-dihydro-2-pyrazinecarboxamide]
inhibition at 100 µg/mL [2]: 100%
inhibition at 100 µg/mL [3]: 100%
conversion into phosphate forms in the liver [6]: converted in vivo into a monophosphate, then into a diphosphate form, and then into a triphosphate
component whose HPLC retention time matches the synthetic triphosphate (Reference Example 22) in cell extract (MDBK cells): detected
